From US12065436B2, “Cardiac sarcomere inhibitors” (Cytokinetics, Inc., priority 2018, dated 2024)

Target: bovine cardiac myofibrils (full-length cardiac myosin ATPase in the native sarcomere) (Bos taurus (Bovine), UniProt Q9BE39)
Experiment: Skinned bovine cardiac myofibril ATPase assay (PK/LDH-coupled)
Format: biochemical
Conditions: Ca2+ activating to 75% of maximal rate; for CDMF75 IC15: concentration giving 15% inhibition; for IC50: read-out: CDMF75 IC50
Summary of the method: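 Triton-skinned bovine left-ventricle myofibrils (1 mg/mL) in PM 12 buffer (12 mM PIPES, 2 mM MgCl2, pH 6.8) with 50 μM ATP, 0.6 mM EGTA and CaCl2 set for 50% or 75% activation. Steady-state ATPase inhibition followed by PK/LDH-coupled NADH oxidation at 340 nm.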

Sequence of bovine cardiac myofibrils (full-length cardiac myosin ATPase in the native sarcomere) (Q9BE39 whole entry): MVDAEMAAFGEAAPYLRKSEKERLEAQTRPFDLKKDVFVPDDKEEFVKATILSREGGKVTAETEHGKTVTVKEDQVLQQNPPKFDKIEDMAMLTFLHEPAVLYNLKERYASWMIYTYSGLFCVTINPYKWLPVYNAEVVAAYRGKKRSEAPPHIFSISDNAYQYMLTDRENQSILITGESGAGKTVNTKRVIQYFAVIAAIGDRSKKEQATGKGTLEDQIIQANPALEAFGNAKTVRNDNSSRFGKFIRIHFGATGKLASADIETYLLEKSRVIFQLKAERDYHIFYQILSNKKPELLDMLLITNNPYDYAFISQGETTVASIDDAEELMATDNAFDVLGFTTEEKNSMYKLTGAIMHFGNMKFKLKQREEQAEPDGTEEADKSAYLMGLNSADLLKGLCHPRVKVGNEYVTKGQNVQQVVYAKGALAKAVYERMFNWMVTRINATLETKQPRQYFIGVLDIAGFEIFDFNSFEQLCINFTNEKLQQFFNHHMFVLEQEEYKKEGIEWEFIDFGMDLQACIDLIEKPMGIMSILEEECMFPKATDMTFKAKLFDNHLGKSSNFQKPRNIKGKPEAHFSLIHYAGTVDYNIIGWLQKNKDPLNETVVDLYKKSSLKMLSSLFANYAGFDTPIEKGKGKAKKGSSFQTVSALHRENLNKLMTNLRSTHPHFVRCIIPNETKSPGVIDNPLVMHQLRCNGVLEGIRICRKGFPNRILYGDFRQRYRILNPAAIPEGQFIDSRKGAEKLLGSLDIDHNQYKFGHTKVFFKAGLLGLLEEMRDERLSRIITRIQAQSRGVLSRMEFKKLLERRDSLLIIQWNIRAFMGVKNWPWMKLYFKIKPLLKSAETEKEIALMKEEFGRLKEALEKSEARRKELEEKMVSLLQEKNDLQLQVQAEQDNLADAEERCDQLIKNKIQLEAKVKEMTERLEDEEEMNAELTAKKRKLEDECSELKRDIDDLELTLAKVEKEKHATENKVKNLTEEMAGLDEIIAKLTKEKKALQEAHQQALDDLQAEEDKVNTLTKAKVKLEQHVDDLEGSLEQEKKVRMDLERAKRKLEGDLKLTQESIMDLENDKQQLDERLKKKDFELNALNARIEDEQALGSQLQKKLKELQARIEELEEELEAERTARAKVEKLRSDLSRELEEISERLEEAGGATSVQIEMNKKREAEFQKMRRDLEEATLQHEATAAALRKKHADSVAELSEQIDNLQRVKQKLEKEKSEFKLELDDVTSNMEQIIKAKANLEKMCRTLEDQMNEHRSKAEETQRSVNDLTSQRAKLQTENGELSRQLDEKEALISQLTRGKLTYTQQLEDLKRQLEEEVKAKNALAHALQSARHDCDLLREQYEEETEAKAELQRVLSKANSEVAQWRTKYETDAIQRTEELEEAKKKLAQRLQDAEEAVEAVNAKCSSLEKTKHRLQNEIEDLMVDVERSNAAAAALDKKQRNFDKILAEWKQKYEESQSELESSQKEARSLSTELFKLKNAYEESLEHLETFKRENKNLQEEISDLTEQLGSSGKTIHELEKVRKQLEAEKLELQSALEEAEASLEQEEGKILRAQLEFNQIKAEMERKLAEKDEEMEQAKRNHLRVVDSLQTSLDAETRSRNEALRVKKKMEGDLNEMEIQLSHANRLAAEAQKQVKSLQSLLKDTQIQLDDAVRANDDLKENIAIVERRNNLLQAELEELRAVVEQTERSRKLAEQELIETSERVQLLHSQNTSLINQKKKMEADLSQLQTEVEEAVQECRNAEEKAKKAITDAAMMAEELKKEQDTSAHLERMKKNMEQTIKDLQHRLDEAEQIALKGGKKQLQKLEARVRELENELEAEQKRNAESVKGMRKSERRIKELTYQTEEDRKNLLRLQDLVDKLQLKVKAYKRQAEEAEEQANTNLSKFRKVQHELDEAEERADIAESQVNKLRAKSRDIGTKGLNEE
Sequence of bovine cardiac myofibrils (full-length cardiac myosin ATPase in the native sarcomere) (P85100 whole entry partner): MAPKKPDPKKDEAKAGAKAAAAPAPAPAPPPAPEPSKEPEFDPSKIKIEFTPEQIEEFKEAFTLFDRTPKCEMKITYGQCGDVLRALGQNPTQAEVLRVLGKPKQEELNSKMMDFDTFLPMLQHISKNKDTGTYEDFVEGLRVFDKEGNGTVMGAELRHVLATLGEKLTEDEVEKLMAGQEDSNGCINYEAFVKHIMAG
Sequence of bovine cardiac myofibrils (full-length cardiac myosin ATPase in the native sarcomere) (Q3SZE5 whole entry partner): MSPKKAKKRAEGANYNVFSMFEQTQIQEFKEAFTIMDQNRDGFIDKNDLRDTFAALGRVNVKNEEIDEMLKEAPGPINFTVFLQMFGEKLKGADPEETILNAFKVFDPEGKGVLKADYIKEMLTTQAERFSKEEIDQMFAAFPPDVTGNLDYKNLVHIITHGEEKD

| CDMF75 IC15 [µM] | IC50 [µM] | Compound |
| --- | --- | --- |
| 11.5 | > 39.2 | Cc1cc(C(=O)NC2COc3cc(-c4noc(C)n4)cnc32)ccn1 (stereo not shown) [Compound 187, 2-methyl-N-(6-(5-methyl-1,2,4-oxadiazol-3-yl)-2,3-dihydrofuro[3,2-b]pyridin-3-yl)isonicotinamide] |
| 0.6 | 2.2 | CCc1nc(-c2ccc3c(c2)CC[C@H]3NC(=O)c2cnnc(C)c2)no1 [Compound 650, (R)-N-(5-(5-ethyl-1,2,4-oxadiazol-3-yl)-2,3-dihydro-1H-inden-1-yl)-6-methylpyridazine-4-carboxamide] |
| 0.6 | 1.8 | CCc1nc(-c2ccc3c(c2)OCC3NC(=O)c2cc(C)nn2C)no1 (stereo not shown) [Compound 230, N-(6-(5-ethyl-1,2,4-oxadiazol-3-yl)-2,3-dihydrobenzofuran-3-yl)-1,3-dimethyl-1H-pyrazole-5-carboxamide] |
| 2.6 | 8.9 | CCc1nc(-c2ccc3c(c2)CC[C@H]3NC(=O)c2cnn(CC(OC)OC)c2)no1 [Compound 530, (R)-1-(2,2-dimethoxyethyl)-N-(5-(5-ethyl-1,2,4-oxadiazol-3-yl)-2,3-dihydro-1H-inden-1-yl)-1H-pyrazole-4-carboxamide] |
| 1.6 | 6.1 | Cc1ccnc(C(=O)NC2CCc3cc(-c4noc(C)n4)ccc32)c1 (stereo not shown) [Compound 68, 4-methyl-N-(5-(5-methyl-1,2,4-oxadiazol-3-yl)-2,3-dihydro-1H-inden-1-yl)picolinamide] |
| 39.2 | > 39.2 | CC(=O)N1CC[C@H]1C(=O)N[C@@H]1CCc2cc(-c3noc(C4CC4)n3)ccc21 [Compound 332, (S)-1-acetyl-N-((R)-5-(5-cyclopropyl-1,2,4-oxadiazol-3-yl)-2,3-dihydro-1H-inden-1-yl)azetidine-2-carboxamide] |
| 0.3 | 1.1 | O=C(N[C@@H]1COc2cc(-c3noc(C(F)F)n3)ccc21)c1cccc(CO)c1 [Compound 701, (S)-N-(6-(5-(difluoromethyl)-1,2,4-oxadiazol-3-yl)-2,3-dihydrobenzofuran-3-yl)-3-(hydroxymethyl)benzamide] |
| 0.5 | 2.3 | COCc1nc(-c2ccc3c(c2)CC[C@H]3NC(=O)c2cccc(CO)c2)no1 [Compound 669, (R)-3-(hydroxymethyl)-N-(5-(5-(methoxymethyl)-1,2,4-oxadiazol-3-yl)-2,3-dihydro-1H-inden-1-yl)benzamide] |
| 13.4 | > 39.2 | CCc1nc(-c2ccc3c(c2)CC[C@H]3NC(=O)[C@H]2COCCN2)no1 [Compound 356, (R)-N-((R)-5-(5-ethyl-1,2,4-oxadiazol-3-yl)-2,3-dihydro-1H-inden-1-yl)morpholine-3-carboxamide] |
| 0.3 | 1 | CCc1nc(-c2ccc3c(c2)OC[C@H]3NC(=O)c2cc(C)nn2C)no1 [Compound 231, (S)-N-(6-(5-ethyl-1,2,4-oxadiazol-3-yl)-2,3-dihydrobenzofuran-3-yl)-1,3-dimethyl-1H-pyrazole-5-carboxamide] |
| 0.3 | 1.1 | CCc1nc(-c2ccc3c(c2)CC[C@H]3NC(=O)c2nnn(Cc3ccccc3)n2)no1 [Compound 501, (R)-2-benzyl-N-(5-(5-ethyl-1,2,4-oxadiazol-3-yl)-2,3-dihydro-1H-inden-1-yl)-2H-tetrazole-5-carboxamide] |
| 2.2 | 8.9 | Cc1nc(-c2ccc3c(c2)CCC3NC(=O)c2nocc2C)no1 (stereo not shown) [Compound 105, 4-methyl-N-(5-(5-methyl-1,2,4-oxadiazol-3-yl)-2,3-dihydro-1H-inden-1-yl)isoxazole-3-carboxamide] |
| 2.6 | 11.3 | Cc1nc(-c2ccc3c(c2)OC[C@H]3NC(=O)c2nnn(C)n2)no1 [Compound 200, (S)-2-methyl-N-(6-(5-methyl-1,2,4-oxadiazol-3-yl)-2,3-dihydrobenzofuran-3-yl)-2H-tetrazole-5-carboxamide] |
| 4.6 | 22.6 | CCc1nc(-c2ccc3c(c2)CC[C@H]3NC(=O)c2cc(CO)ccc2C)no1 [Compound 651, (R)-N-(5-(5-ethyl-1,2,4-oxadiazol-3-yl)-2,3-dihydro-1H-inden-1-yl)-5-(hydroxymethyl)-2-methylbenzamide] |
| 3.4 | 13.9 | O=C(N[C@@H]1COc2cc(-c3noc(C(F)F)n3)ccc21)C(F)F [Compound 441, (S)-N-(6-(5-(difluoromethyl)-1,2,4-oxadiazol-3-yl)-2,3-dihydrobenzofuran-3-yl)-2,2-difluoroacetamide] |
| 0.5 | 1.8 | Cc1noc(-c2ccc3c(c2)CC[C@H]3NC(=O)c2ccnn2C)n1 [Compound 204, (R)-1-methyl-N-(5-(3-methyl-1,2,4-oxadiazol-5-yl)-2,3-dihydro-1H-inden-1-yl)-1H-pyrazole-5-carboxamide] |

| CDMF75 IC15 [µM] | IC50 [µM] | Compound |
| --- | --- | --- |
| 2.9 | 13.5 | Cc1cc(C(=O)NC2CCc3cc(-c4nnn(C)n4)ccc32)ccn1 (stereo not shown) [Compound 148, 2-methyl-N-(5-(2-methyl-2H-tetrazol-5-yl)-2,3-dihydro-1H-inden-1-yl)isonicotinamide] |
| 1.0 | 4.2 | CCc1nc(-c2ccc3c(c2)CC[C@H]3NC(=O)c2cnn(CCOC)c2C)no1 [Compound 574, (R)-N-(5-(5-ethyl-1,2,4-oxadiazol-3-yl)-2,3-dihydro-1H-inden-1-yl)-1-(2-methoxyethyl)-5-methyl-1H-pyrazole-4-carboxamide] |
| 0.2 | 0.7 | CCc1nc(-c2ccc3c(c2)OC[C@H]3NC(=O)c2ocnc2C)no1 [Compound 455, (S)-N-(6-(5-ethyl-1,2,4-oxadiazol-3-yl)-2,3-dihydrobenzofuran-3-yl)-4-methyloxazole-5-carboxamide] |
| 1.0 | 3.4 | [2H]C([2H])([2H])c1nc(-c2ccc3c(c2)CC[C@H]3NC(=O)c2ccnc(C)c2)no1 [Compound 245, (R)-2-methyl-N-(5-(5-(methyl-d3)-1,2,4-oxadiazol-3-yl)-2,3-dihydro-1H-inden-1-yl)isonicotinamide] |
| 3.2 | 12.4 | CC(=O)N[C@@H]1COc2cc(-c3noc(C)n3)ccc21 [Compound 450, (S)-N-(6-(5-methyl-1,2,4-oxadiazol-3-yl)-2,3-dihydrobenzofuran-3-yl)acetamide] |
| 24.7 | > 39.2 | CCc1nc(-c2ccc3c(c2)CC[C@H]3NC(=O)[C@@H]2CCC(=O)N2)no1 [Compound 337, (S)-N-((R)-5-(5-ethyl-1,2,4-oxadiazol-3-yl)-2,3-dihydro-1H-inden-1-yl)-5-oxopyrrolidine-2-carboxamide] |
| 15.5 | 39.2 | COCCc1nc(-c2ccc3c(c2)CC[C@H]3NC(=O)c2cnn(C)c2)no1 [Compound 546, N-{(1R)-5-[5-(2-methoxyethyl)(1,2,4-oxadiazol-3-yl)]indanyl}(1-methylpyrazol-4-yl)carboxamide] |
| 0.8 | 3.4 | CCc1nc(-c2ccc3c(c2)CC[C@H]3NC(=O)c2ccc(=O)n(CCO)c2)no1 [Compound 605, (R)-N-(5-(5-ethyl-1,2,4-oxadiazol-3-yl)-2,3-dihydro-1H-inden-1-yl)-1-(2-hydroxyethyl)-6-oxo-1,6-dihydropyridine-3-carboxamide] |
| 8.5 | 39.2 | CCc1nc(-c2ccc3c(c2)CC[C@H]3NC(=O)c2cnn(C3CN(C(C)=O)C3)c2)no1 [Compound 477, (R)-1-(1-acetylazetidin-3-yl)-N-(5-(5-ethyl-1,2,4-oxadiazol-3-yl)-2,3-dihydro-1H-inden-1-yl)-1H-pyrazole-4-carboxamide] |
| 0.7 | 2.4 | Cc1cc(C(=O)NC2COc3cc(-c4noc(C5CC5)n4)ccc32)n(C)n1 (stereo not shown) [Compound 232, N-(6-(5-cyclopropyl-1,2,4-oxadiazol-3-yl)-2,3-dihydrobenzofuran-3-yl)-1,3-dimethyl-1H-pyrazole-5-carboxamide] |
| 0.3 | 1.1 | O=C(N[C@@H]1CCc2cc(-c3noc(C(F)F)n3)ccc21)c1cccc(CO)c1 [Compound 661, (R)-N-(5-(5-(difluoromethyl)-1,2,4-oxadiazol-3-yl)-2,3-dihydro-1H-inden-1-yl)-3-(hydroxymethyl)benzamide] |
| 2.7 | 12.1 | CCC(=O)N[C@@H]1CCc2cc(-c3noc(CC)n3)ccc21 [Compound 317, (R)-N-(5-(5-ethyl-1,2,4-oxadiazol-3-yl)-2,3-dihydro-1H-inden-1-yl)propionamide] |
| 0.3 | 0.7 | CCc1nc(-c2ccc3c(c2)OC[C@H]3NC(=O)c2conc2C)no1 [Compound 340, (S)-N-(6-(5-ethyl-1,2,4-oxadiazol-3-yl)-2,3-dihydrobenzofuran-3-yl)-3-methylisoxazole-4-carboxamide] |
| 0.3 | 0.9 | CCc1nc(-c2ccc3c(c2)OC[C@H]3NC(=O)OC)no1 [Compound 349, methyl (S)-(6-(5-ethyl-1,2,4-oxadiazol-3-yl)-2,3-dihydrobenzofuran-3-yl)carbamate] |
| 17.6 | > 39.2 | Cn1nccc1C(=O)N[C@@H]1CCc2cc(-c3cnccn3)ccc21 [Compound 368, (R)-1-methyl-N-(5-(pyrazin-2-yl)-2,3-dihydro-1H-inden-1-yl)-1H-pyrazole-5-carboxamide] |
| 0.2 | 0.6 | CCc1nc(-c2ccc3c(c2)CC[C@H]3NC(=O)c2cc(Cl)no2)no1 [Compound 620, (R)-3-chloro-N-(5-(5-ethyl-1,2,4-oxadiazol-3-yl)-2,3-dihydro-1H-inden-1-yl)isoxazole-5-carboxamide] |
